One assay deals with Caspase-6 (Homo sapiens, UniProt P55212). Put plainly: human caspase-6 inhibitors, dose response, biochemical, VEID-R110 fluorescence, cherry-pick (AID 720632).
Assay [1] in a line: cytotoxicity in HepG2 cells, dose response, cytotoxicity control, cell-based, plate reader, dry powder (AID 651947). Type of assay: functional.
Assay [2] is described as follows: growth inhibition of replicating M. tuberculosis, dose response, counter-screen, dry powder, IC90 (AID 651617). The class given is functional. Conditions: Mycobacterium tuberculosis. In general terms: Counterscreens check selectivity or assay interference.
A short description of assay [3]: inhibitors of non-replicating M. tuberculosis, dose response, luciferase, dry powder (AID 651620). The class given is functional. The settings on record: Mycobacterium tuberculosis.
The nature of assay [4]: inhibitors of non-replicating M. tuberculosis, dose response, luciferase, dry powder (AID 651619). The class given is functional. Conditions: Mycobacterium tuberculosis.
The nature of assay [5]: HEK293T cell cytotoxicity, dose response, cytotoxicity control, CellTiter-Glo luminescence, dry powder, set 6 (AID 651949). Conditions: HEK293. Type of assay: functional, cell-based. (In general: ATP-based viability assays read luminescence as a measure of living cells.)
Assay [6] in a line: ADAM10 inhibitors, peptide cleavage, dose response, biochemical, QFRET (AID 743254).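 Note: ADAM10 enzyme with the DM2 quenched FRET peptide as substrate; EDANS fluorescence gain as the protease cuts the substrate; inhibitor potency against ADAM10 proteolytic activity.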
The target of assay [7] is T1, Disintegrin and metalloproteinase domain-containing protein 17 (Homo sapiens, UniProt P78536). Briefly: ADAM17 protease inhibitors, dose response, counter-screen for ADAM10 exosite inhibitor project, biochemical, quenched FRET substrate (AID 743253).
T1 sequence (P78536 whole entry, the tested form may be a part): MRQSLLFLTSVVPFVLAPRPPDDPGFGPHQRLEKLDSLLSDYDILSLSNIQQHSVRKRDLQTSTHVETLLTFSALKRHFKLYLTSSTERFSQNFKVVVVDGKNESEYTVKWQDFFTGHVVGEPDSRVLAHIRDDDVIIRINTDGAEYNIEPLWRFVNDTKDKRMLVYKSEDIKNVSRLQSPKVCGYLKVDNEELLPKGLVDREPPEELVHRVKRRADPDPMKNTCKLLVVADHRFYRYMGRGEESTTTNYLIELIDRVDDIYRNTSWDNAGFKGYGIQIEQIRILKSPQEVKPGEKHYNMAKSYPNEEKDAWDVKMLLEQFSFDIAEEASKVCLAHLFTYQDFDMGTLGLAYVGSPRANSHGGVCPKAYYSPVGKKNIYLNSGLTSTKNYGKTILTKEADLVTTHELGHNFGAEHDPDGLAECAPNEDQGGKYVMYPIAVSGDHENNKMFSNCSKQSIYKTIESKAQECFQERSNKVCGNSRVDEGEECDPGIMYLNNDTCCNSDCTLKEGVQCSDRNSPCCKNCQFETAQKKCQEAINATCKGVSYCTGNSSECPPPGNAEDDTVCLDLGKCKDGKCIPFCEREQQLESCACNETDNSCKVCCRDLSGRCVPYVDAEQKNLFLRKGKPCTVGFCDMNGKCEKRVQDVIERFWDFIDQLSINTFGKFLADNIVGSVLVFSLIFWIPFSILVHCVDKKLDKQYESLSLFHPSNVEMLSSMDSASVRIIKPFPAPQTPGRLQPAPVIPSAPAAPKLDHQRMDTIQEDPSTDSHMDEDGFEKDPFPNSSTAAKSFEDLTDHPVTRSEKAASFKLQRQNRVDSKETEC
Assay [8] is described as follows: ADAM10 protease inhibitors, dose response, selectivity assay for ADAM17 exosite inhibitor project, biochemical, FRET peptide substrate, recombinant human ADAM10 (AID 743259).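 Note: ADAM10 enzyme cleaving a FRET peptide substrate.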
The target of assay [9] is T1, Disintegrin and metalloproteinase domain-containing protein 17. Briefly: exosite inhibitors of ADAM17, dose response, biochemical (AID 743260).
The target of assay [10] is T2, Calpain-2 catalytic subunit (Sus scrofa, UniProt P43367).
T2 sequence (P43367 whole entry): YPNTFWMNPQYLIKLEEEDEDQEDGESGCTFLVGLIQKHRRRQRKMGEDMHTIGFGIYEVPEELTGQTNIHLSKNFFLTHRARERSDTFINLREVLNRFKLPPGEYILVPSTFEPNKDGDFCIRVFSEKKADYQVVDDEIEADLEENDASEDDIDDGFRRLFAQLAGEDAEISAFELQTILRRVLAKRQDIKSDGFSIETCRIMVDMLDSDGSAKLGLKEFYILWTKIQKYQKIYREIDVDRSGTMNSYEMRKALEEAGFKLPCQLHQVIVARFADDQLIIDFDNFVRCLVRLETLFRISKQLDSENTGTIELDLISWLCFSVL
Briefly: pig calpain II inhibitor potency, dose response, biochemical, fluorogenic peptide substrate (AID 1420). Type of assay: functional.

A short description of assay [11]: HEK293 cell cytotoxicity, dose response, cytotoxicity control, cherry-picks, set 5 (AID 1053117). Type of assay: functional, cell-based.
The nature of assay [12]: HepG2 cell cytotoxicity, dose response, cytotoxicity control, cherry-picks, set 5 (AID 1053118). The class given is functional, cell-based.
Assay [13] can be described thus: inhibitors of fibronectin matrix deposition, dose response, AH1F cells, Alexa488-FN fluorescence, cherry-picks (AID 1035475). The class given is functional, cell-based.
Assay [14] in a line: HEK293T cytotoxicity, dose response, cytotoxicity control for miR-122 modulator project, cell-based, inhibitor set, cherry-pick, set 2 (AID 720697). Type of assay: functional.
The nature of assay [15]: miR-122 activators in hepatoma reporter cells, dose response, cell-based, Huh7 psiCHECK-miR122, Renilla luciferase, cherry-picked (AID 651956).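 Note: huh7 hepatoma cells stably carrying a psiCHECK-2 miR-122 sensor plasmid; renilla luciferase signal reporting endogenous miR-122 activity after 48 h compound exposure.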 The class given is functional.
Assay [16] can be described thus: HEK293T cytotoxicity, dose response, cytotoxicity control for miR-122 modulator project, cell-based, activator set, cherry-pick (AID 720690).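 Note: HEK293T human cells scored for general mammalian cytotoxicity.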 The class given is functional.
Another assay deals with H4. Briefly: Luminescence Cell-Based Dose Response HTS to Identify Activators of 5'UTR Stem-Loop Driven Prion Protein mRNA Translation in H4 Neuroglioblastoma Cells. [Related pubchem assays: 1829 (Project Summary), 1814 (Primary HTS)]. The settings on record: Homo sapiens. Type of assay: functional.
Assay [17] is described as follows: Shn3 3'UTR reporter inhibitors, dose response, cell-based, Clone20 osteoblasts, firefly luciferase, cherry-picked (AID 624132).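 Note: firefly luciferase luminescence from reporter carrying the Shn3 3'UTR in osteoblasts.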 Type of assay: functional.
Assay [18] can be described thus: HepG2 cell cytotoxicity, dose response, cytotoxicity control for Shn3 inhibitor project, CellTiter-Glo, cherry-picked (AID 624134). The class given is functional, cell-based.
Assay [19] can be described thus: Luminescence Cell-Based Dose Response HTS to Identify Activators of Luciferase Translation or Activity in H4 […] Cells. [Related pubchem assays: 1829 (Project Summary), 1814 (Primary HTS)]. The class given is functional.
Assay [20] can be described thus: control 3'UTR Renilla luciferase suppression, dose response, counter-screen for Shn3 inhibitor project, cell-based, Clone20-Shn3RL, cherry-picked (AID 624133). Type of assay: functional.
Assay [21] is described as follows: Luminescence Cell-Based Dose Confirmation HTS to Identify Activators of 5'UTR Stem-Loop Driven Alpha-Synuclein mRNA Translation in H4 Neuroglioblastoma Cells. [Related pubchem assays: 1829 (Project Summary), 1814 (Primary HTS)]. The class given is functional.
The target of assay [22] is Matrix metalloproteinase-14 (Homo sapiens, UniProt P50281). Briefly: Dose Response confirmation of uHTS hits for a small molecule inhibitors of MT1-MMP activation in a fluorescence assay set 2. Type of assay: functional.
The nature of assay [23]: HEK293T cell cytotoxicity, dose response, cytotoxicity control, luminescence plate reader, powder samples, set 4 (AID 651863). Conditions: HEK293. Type of assay: functional, cell-based.

Calls of active or inactive are those of the source.

Chain of Caspase-6 (P55212 24-179 limits assumed): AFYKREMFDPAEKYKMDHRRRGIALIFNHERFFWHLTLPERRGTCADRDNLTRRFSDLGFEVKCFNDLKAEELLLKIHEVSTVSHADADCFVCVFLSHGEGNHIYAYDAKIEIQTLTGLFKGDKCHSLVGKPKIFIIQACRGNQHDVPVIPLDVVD
Chain of Caspase-6 (P55212 194-293 limits assumed): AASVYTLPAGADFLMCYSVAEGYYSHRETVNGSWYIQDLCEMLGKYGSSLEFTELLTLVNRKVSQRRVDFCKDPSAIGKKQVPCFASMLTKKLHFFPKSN

In general, AC50 refers to the concentration giving half of the maximal activity seen. Turning to `O=C(Nc1sc2c(c1C(=O)O)CCC2)C(=O)N1CCOCC1`, the half-maximal activity concentration (AC50) at Caspase-6 is 30.7 µM (active).
Regarding `Cc1ccccc1CSc1nnc(-c2ccccc2)o1`, the half-maximal activity concentration (AC50) in assay [1] is 0.308 µM (active).
What is called IC90 is the concentration at which the effect reaches the 90% level. Consider `c1ccc(-n2cc(CSc3nnc(C4CCC4)o3)nn2)cc1`, for which the 90% effect concentration (IC90) in assay [2] was 62 µM (active); in assay [3], 2 µM (active); in assay [4] it was 2 µM (active). Also, the AC50 in assay [5] is > 52 µM (inactive).
A word on the IC50: it is the concentration that inhibits the measured activity by half. Take `Cc1cccc([C@@H]2[C@@H]3C(=O)N(Cc4ccccc4)C(=O)[C@@H]3[C@]3(Cc4ccccc4)C(=O)N(c4ccc(C(F)(F)F)cc4)C(=O)N23)c1`: the IC50 in [6] and in assay [7] was > 69.6 µM (inactive) each time.
On to `Nc1cc(S(=O)(=O)N2CCCCC2)ccc1Oc1ccc(Cl)cc1`, for which the results for the IC50 in [8], in [9] and in assay [10] were > 69.5 µM (inactive), > 69.5 µM (inactive) and 5.69 µM (not active), respectively.
For the compound `O=S(=O)(c1cccc(F)c1)N1CC[C@@H]2[C@@H](CO)Nc3ccc(-c4cccc(F)c4)cc3[C@@H]21`, the half-maximal activity concentration (AC50) in assay [11] was 22.6 µM (active); in assay [12], 27.3 µM (active); in assay [13], 6.54 µM (active).
For the compound `COc1ccc(OC)c(-c2cc(C3CCN(c4cc(Cl)nc(N)n4)CC3)[nH]n2)c1`, the figures for the half-maximal activity concentration (AC50) in [14], in [15] and in [16] were 18.1 µM (active), 42.9 µM (active) and 16.7 µM (active), respectively.
By EC50 is commonly meant the midpoint of the concentration-response curve. Consider `CC[n+]1c(/C=C/Nc2ccccc2)sc2ccccc21`, for which the EC50 (with H4; in assay [19]; in assay [21]) was > 120 µM (not active) throughout. The values for the concentration at half-maximal activity (AC50) in [17], in [18] and in assay [20] were 2.06 µM (active), > 70 µM (inactive) and 5.83 µM (active), respectively. For the same compound, the IC50 in assay [22] is 23.3 µM (inactive).
`O=C(NC[C@@H]1c2ccccc2CCN1C(=O)[C@@H]1CCCC[C@@H]1C(=O)O)OCC1c2ccccc2-c2ccccc21`: in assay [23], the half-maximal activity concentration (AC50) was 46.3 µM (active).
